From article PMC7922932, “Molecular Dissection of Escherichia coli CpdB: Roles of the N Domain in Catalysis and Phosphate Inhibition, and of the C Domain in Substrate Specificity and Adenosine Inhibition” (International Journal of Molecular Sciences, 2021)
“And” between values parts separate entries of the source, which are not always exact repeats. Identical values can stand only once. Like-named read-outs stand apart in the source and are kept apart here.

Assays:
[1] = target: T1, CpdB_Ndom (Escherichia coli, UniProt P08331, D305N/I97V/M87I); assay type: biochemical; conditions: CpdB_Ndom; for IC50: 750 µM bis-4-NPP as the substrate, single illustrative experiments; for Ki: substrate bis-4-NPP, estimated from inhibitor dose-response curves (Figure 6), read-out: Inhibition constant (Ki)
T1 construct: GST (N, cleaved yes); made in house; host or cells: E. coli BL21
T1 sequence (P08331 20-354 M87I/I97V/D305N): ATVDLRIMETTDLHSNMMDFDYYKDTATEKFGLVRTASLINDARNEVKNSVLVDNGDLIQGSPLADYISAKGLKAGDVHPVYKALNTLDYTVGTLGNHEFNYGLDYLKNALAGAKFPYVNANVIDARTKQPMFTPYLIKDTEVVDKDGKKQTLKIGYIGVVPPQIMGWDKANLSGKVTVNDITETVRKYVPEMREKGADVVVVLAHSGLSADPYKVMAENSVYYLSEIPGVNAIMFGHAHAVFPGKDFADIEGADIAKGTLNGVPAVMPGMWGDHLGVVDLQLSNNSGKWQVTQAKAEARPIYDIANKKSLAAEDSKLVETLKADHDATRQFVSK

[2] = target: T2, Mature CpdB (Escherichia coli, UniProt P08331); experiment: biochemical; assay type: biochemical; design: A structural model of mature CpdB (aa 20–647) was built; GST (N, cleaved yes); made in house; host or cells: E. coli BL21; conditions: mature CpdB; for IC50: 750 µM bis-4-NPP as the substrate, single illustrative experiments, read-out: IC50; for Ki: substrate bis-4-NPP, global fit, mixed partial inhibition (Figure 5), values without SD are single experiments, read-out: Inhibition constant (Ki)
T2 sequence (P08331 20-647): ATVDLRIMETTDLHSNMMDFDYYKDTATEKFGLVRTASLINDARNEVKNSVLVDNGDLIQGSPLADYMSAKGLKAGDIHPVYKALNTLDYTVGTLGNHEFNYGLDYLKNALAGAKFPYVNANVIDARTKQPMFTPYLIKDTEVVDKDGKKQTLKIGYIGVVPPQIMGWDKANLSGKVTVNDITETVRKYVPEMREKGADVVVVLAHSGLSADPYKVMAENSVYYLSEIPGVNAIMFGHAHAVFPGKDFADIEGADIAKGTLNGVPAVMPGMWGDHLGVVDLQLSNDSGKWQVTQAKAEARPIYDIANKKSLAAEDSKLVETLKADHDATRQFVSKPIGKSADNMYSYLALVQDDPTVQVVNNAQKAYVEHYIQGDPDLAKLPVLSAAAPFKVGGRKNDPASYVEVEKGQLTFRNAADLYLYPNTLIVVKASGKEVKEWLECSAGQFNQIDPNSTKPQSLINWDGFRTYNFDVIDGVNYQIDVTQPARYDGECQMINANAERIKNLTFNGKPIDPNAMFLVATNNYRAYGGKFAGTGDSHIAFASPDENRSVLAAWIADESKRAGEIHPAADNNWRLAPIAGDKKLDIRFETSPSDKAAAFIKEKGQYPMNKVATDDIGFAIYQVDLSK
Description: (§1) Reaction mixtures of 100 µL contained, besides the needed amount of enzyme (i.e., 0.02–0.05 µg/mL of mature CpdB, 2 µg/mL of a CpdB point mutant, or 0.2 µg/mL of CpdB_Ndom), 50 mM Tris [Tris(hydroxymethyl)aminomethane]-HCl pH 7.5 (adjusted at 37 °C), 2 mM MnCl2, 0.1 mg/mL bovine serum albumin, and the indicated concentrations of bis-4-NPP and the compound tested as inhibitor. Incubations performed at 37 °C were stopped by addition of 0.5 mL of 200 mM Tris, pH 8.9, 5 mM EDTA (ethylenediaminetetraacetate), immediately followed by A405 measurement (ε = 18.1 mM^−1 cm^−1). This termination procedure was used instead of the addition of a high NaOH concentration, to avoid the known formation of brown precipitates of air-oxidized Mn^2+ hydroxide. On occasions, when a higher sensitivity was needed, reaction mixtures of 500 µL were implemented and termination was performed with 0.1 mL 1M Tris, pH 8.9, 30 mM EDTA.

[3] = target: T3, CpdB_Ndom (N-terminal domain of CpdB) (Escherichia coli, UniProt P08331, D305N/I97V/M87I); assay type: biochemical; conditions: for K M / k cat / k cat /K M: CpdB_Ndom, substance is the substrate, mean ± SD of three experiments; for Activity of CpdB_Ndom on substrate (hydrolytic rate): fixed 750 µM substrate concentration
T3 construct: GST (N, cleaved yes); made in house; host or cells: E. coli BL21
T3 sequence (P08331 20-354 M87I/I97V/D305N): as the sequence (P08331 20-354 M87I/I97V/D305N) above
Description: With all the detectably hydrolyzed substrates, saturation kinetics was studied and parameters kcat and KM were determined from Michaelis-Menten plots (Table 1).
The same assay was used with 2′,3′- or 3′,5′-cyclic nucleotides, CDP-choline and bis-4-NPP except that an excess of alkaline phosphatase was included in the reaction mixture as auxiliary enzyme.
Datasets obtained with different substrates in the absence of inhibitors were used to derive kcat and KM values by adjusting the Michaelis-Menten equation to the experimental points by non-linear regression.

[4] = test system: Tyr^544Ala-CpdB; assay type: biochemical, Escherichia coli; conditions: Tyr^544Ala-CpdB versus wild-type mature CpdB
Source text: (§2) The role of the possible catalytic and substrate-binding sites was additionally tested by the preparation of two point mutants of the mature CpdB protein. On the one hand, the mutation His^117Ala modified the histidine residue conserved in the N domain (Figure 1b) with respect to UshA, where it has been proposed to be part of the catalytic core structure and to act as a general base that facilitates the nucleophilic attack by deprotonating a water molecule, and to participate in the stabilization of the transition state. […] On the other hand, mutation Tyr^544Ala modified one of the aromatic residues of CpdB which are conserved in the C domain with respect to the UshA phenylalanine residues that form a stacked sandwich with the adenine ring of the substrate.

[5] = target: T4, Tyr^544Ala-CpdB (Escherichia coli, UniProt P08331, D305N/I514V/I97V/M87I/N471D/S472N/Y544A); assay type: biochemical; conditions: Tyr^544Ala-CpdB; substance is the substrate
T4 construct: A structural model of mature CpdB (aa 20–647) was built; GST (N, cleaved yes); made in house; host or cells: E. coli BL21
T4 sequence (P08331 20-647 M87I/I97V/D305N/N471D/S472N/I514V/Y544A): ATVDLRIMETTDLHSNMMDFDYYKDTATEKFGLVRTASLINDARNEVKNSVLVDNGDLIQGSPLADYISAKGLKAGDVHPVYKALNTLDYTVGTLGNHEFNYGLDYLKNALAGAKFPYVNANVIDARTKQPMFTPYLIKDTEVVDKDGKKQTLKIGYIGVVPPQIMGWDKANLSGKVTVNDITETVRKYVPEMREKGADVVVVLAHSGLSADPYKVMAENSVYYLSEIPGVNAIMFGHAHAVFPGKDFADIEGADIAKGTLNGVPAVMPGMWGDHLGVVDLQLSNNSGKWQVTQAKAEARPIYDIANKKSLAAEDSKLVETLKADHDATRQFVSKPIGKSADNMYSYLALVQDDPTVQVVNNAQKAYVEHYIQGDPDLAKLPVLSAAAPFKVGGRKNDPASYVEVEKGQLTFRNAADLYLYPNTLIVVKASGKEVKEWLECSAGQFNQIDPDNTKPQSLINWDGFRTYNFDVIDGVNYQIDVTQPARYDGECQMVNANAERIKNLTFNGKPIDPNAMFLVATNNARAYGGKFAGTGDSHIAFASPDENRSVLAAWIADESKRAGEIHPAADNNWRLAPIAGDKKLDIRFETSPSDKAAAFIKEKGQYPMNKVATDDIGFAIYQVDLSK
Source text: as §2

[6] = target: T2, Mature CpdB; design: A structural model of mature CpdB (aa 20–647) was built; GST (N, cleaved yes); made in house; host or cells: E. coli BL21; conditions: substance is the substrate; cited from earlier work
[7] = target: T5, His^117Ala-CpdB (Escherichia coli, UniProt P08331, D305N/H117A/I514V/I97V/M87I/N471D/S472N); assay type: biochemical; conditions: for Catalytic efficiency (kcat/KM) lower than wild-type mature CpdB: His^117Ala-CpdB versus wild-type mature CpdB, same substrate; for K M / k cat / k cat /K M: His^117Ala-CpdB, substance is the substrate
T5 construct: A structural model of mature CpdB (aa 20–647) was built; GST (N, cleaved yes); made in house; host or cells: E. coli BL21
T5 sequence (P08331 20-647 M87I/I97V/H117A/D305N/N471D/S472N/I514V): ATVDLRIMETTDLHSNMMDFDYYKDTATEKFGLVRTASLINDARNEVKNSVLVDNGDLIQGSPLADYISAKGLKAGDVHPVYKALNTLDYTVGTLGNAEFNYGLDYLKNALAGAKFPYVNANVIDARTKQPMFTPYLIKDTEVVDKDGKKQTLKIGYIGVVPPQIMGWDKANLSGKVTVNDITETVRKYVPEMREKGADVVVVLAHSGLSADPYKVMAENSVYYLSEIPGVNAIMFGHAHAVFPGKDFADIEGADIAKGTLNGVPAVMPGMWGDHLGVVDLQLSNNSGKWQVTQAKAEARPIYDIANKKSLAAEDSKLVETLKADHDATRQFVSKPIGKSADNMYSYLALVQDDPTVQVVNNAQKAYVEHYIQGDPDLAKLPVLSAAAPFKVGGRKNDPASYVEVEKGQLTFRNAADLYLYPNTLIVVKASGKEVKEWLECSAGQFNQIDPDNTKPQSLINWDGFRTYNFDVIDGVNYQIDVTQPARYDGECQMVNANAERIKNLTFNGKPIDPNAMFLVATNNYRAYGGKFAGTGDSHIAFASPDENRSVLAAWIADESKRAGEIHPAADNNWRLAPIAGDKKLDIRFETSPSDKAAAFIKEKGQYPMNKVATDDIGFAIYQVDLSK
Source text: as §2

[8] = target: T1, CpdB_Ndom; experiment: biochemical; conditions: CpdB_Ndom; substrate bis-4-NPP; global fit, complete competitive inhibition (Figure 7); read-out: Inhibition constant (Ki)
Description: Substrate saturation experiments were run in the absence and the presence of one of these inhibitors at fixed concentrations (Figure 7).
as §1

[9] = target: T1, CpdB_Ndom; experiment: Products of the hydrolysis of cyclic (di)nucleotides by CpdB_Ndom (HPLC); assay type: biochemical; conditions: 2′,3′-cAMP at 500 µM
Source text: (§3) The procedures and detailed conditions to measure the initial rates of phosphohydrolytic reactions were as earlier described [4]. […] The same assay was used with 2′,3′- or 3′,5′-cyclic nucleotides, CDP-choline and bis-4-NPP except that an excess of alkaline phosphatase was included in the reaction mixture as auxiliary enzyme.

[10] = target: T2, Mature CpdB; conditions: for Ki: read-out: Inhibition constant (Ki), mature CpdB, substrate 3′-AMP, global fit, mixed partial inhibition (Figure 5)
Source text: In this approach, inhibitors were used as probes for the relevance of those enzyme sites, irrespective of the physiological character and concentrations of the compounds used.
as §3
The procedures followed to derive kinetic parameters kcat, KM and Ki from initial rate vs. substrate concentration datasets, either in the presence or the absence of inhibitor, were as described elsewhere [49]. Datasets obtained with different substrates in the absence of inhibitors were used to derive kcat and KM values by adjusting the Michaelis-Menten equation to the experimental points by non-linear regression. […] Each one of these equations was simultaneously adjusted (global fit) by nonlinear regression to the three saturation curves of each inhibition experiment, using the Solver function of Microsoft Excel. During the adjustments, Vmax, KM and Ki were left to fluctuate. […] In each set of experiments, the type of inhibition that gave the best fit was used as the model to estimate Ki values.

| Structure (SMILES) | IC50 [1] [µM] | IC50 [2] [µM] | Ki [2] [µM] | K M [3] [µM] | k cat [3] [s⁻¹] | k cat /K M [3] | K M [6] [µM] | k cat [6] [s⁻¹] | k cat /K M (catalytic efficiency) [6] | also measured |
| --- | --- | --- | --- | --- | --- | --- | --- | --- | --- | --- |
| Nc1ncnc2c1ncn2[C@@H]1O[C@H](CO)[C@H]2OP(=O)(O)O[C@H]21 [2′,3′-cAMP] | 840 | 56 | 5 ± 0.4 | 390 ± 170 | 73 ± 32 | 190,000 ± 13,000 M^−1 s^−1 | 27 | 190 | 7,300,000 M^−1 s^−1 | KM increase by the Tyr^544Ala mutation [4]: 60 fold; K M [5]: 1600 ± 550 µM; k cat [5]: 190 ± 60 s⁻¹; k cat /K M [5]: 140,000 ± 73,000 M^−1 s^−1; Catalytic efficiency (kcat/KM) lower than wild-type mature CpdB [7]: 5000 fold; K M [7]: 126 ± 7 µM; k cat [7]: 0.18 ± 0.02 s⁻¹; k cat /K M [7]: 1500 ± 230 M⁻¹ s⁻¹; Ki [8]: 460 ± 50 µM; 2′-AMP as product of hydrolysis [9]: 15%; 3′-AMP as product of hydrolysis [9]: 85% |
| Nc1ccn([C@@H]2O[C@H](CO)[C@H]3OP(=O)(O)O[C@H]32)c(=O)n1 [2′,3′-cCMP] |  |  |  | 180 ± 50 | 33 ± 5 | 200,000 ± 80,000 M^−1 s^−1 | 12 | 100 | 8,500,000 M^−1 s^−1 |  |
| Nc1nc2c(ncn2[C@@H]2O[C@H](CO)[C@H]3OP(=O)(O)O[C@H]32)c(=O)[nH]1 [2′,3′-cGMP] |  |  |  | 570 ± 160 | 58 ± 16 | 100,000 ± 13,000 M^−1 s^−1 | 25 | 84 | 3,500,000 M^−1 s^−1 |  |
| O=c1ccn([C@@H]2O[C@H](CO)[C@H]3OP(=O)(O)O[C@H]32)c(=O)[nH]1 [2′,3′-cUMP] |  |  |  | 630 ± 170 | 155 ± 32 | 250,000 ± 50,000 M^−1 s^−1 | 62 | 260 | 4,200,000 M^−1 s^−1 |  |
| Nc1ncnc2c1ncn2[C@@H]1O[C@H](CO)[C@@H](O)[C@H]1OP(=O)(O)O [2′-AMP] | 920 | 100 | 8.8 ± 2 |  |  |  |  |  |  | IC50 [10]: 320 µM; Ki [10]: 7.1 ± 3.2 µM; Ki [1]: 600 µM; Activity of CpdB_Ndom on substrate (hydrolytic rate) [3]: absence of detectable activity |
| Nc1ncnc2c1ncn2[C@@H]1O[C@@H]2COP(=O)(O)O[C@H]2[C@H]1O [3′,5′-cAMP] |  |  |  | 6900 ± 2600 |  |  | 4600 |  |  |  |
| Nc1ncnc2c1ncn2[C@@H]1O[C@H](CO)[C@@H](OP(=O)(O)O)[C@H]1O [3′-AMP] | 4100 | 54 | 3.6 ± 0.2 | 880 ± 250 | 0.004 ± 0.0002 | 5 M⁻¹ s⁻¹ and 5.2 ± 1.0 M⁻¹ s⁻¹ | 14 | 176 |  | Stronger loss of catalytic efficiency than on 2′,3′-cAMP caused by the deletion of the C domain ([3]; CpdB_Ndom versus mature CpdB): 10^5 fold; Activity of CpdB_Ndom on substrate (hydrolytic rate) [3]: almost complete loss of activities; KM increase by the Tyr^544Ala mutation [4]: 60 fold; K M [5]: 850 ± 110 µM; k cat [5]: 160 ± 37 s⁻¹; Activity of His^117Ala-CpdB on substrate [7]: essentially inactive; Ki [8]: 3300 ± 550 µM |
| Nc1ncnc2c1ncn2[C@@H]1O[C@H](COP(=O)(O)O)[C@@H](O)[C@H]1O [5′-AMP] | 560 | 110 | 14 |  |  |  |  |  |  | IC50 [10]: 900 µM; Ki [10]: 20 ± 8 µM; Activity of CpdB_Ndom on substrate (hydrolytic rate) [3]: absence of detectable activity; Ki [8]: 370 ± 50 µM |
| Nc1ncnc2c1ncn2[C@@H]1O[C@H](COP(=O)(O)OP(=O)(O)O)[C@@H](O)[C@H]1O [ADP] |  | 1100 | 60 |  |  |  |  |  |  |  |
| Nc1ncnc2c1ncn2[C@@H]1O[C@H](COP(=O)(O)OP(=O)(O)OP(=O)(O)O)[C@@H](O)[C@H]1O [ATP] | 8700 | 720 | 113 ± 19 |  |  |  |  |  |  | Ki [1]: 5700 µM |
| C[N+](C)(C)CCOP(=O)(O)OP(=O)([O-])OC[C@H]1O[C@@H](n2ccc(N)nc2=O)[C@H](O)[C@@H]1O [CDP-choline] |  |  |  | 2900 ± 1700 | 5.7 ± 3.5 | 1950 ± 130 M⁻¹ s⁻¹ | 219 | 0.51 | 2300 M⁻¹ s⁻¹ |  |
| O=[N+]([O-])c1ccc(OP(=O)(O)Oc2ccc([N+](=O)[O-])cc2)cc1 [bis-4-NPP, bis-4-nitrophenylphosphate] |  |  |  | 1300 ± 80 | 164 ± 14 | 130,000 ± 7000 M^−1 s^−1 | 96 | 340 | 3.6 × 10^6 M^−1 s^−1 and 3,600,000 M^−1 s^−1 | KM increase by the Tyr^544Ala mutation [4]: five-fold; K M [5]: 430 ± 30 µM; k cat [5]: 130 ± 34 s⁻¹; k cat /K M [5]: 300,000 ± 100,000 M^−1 s^−1; Catalytic efficiency (kcat/KM) lower than wild-type mature CpdB [7]: 60 fold; K M [7]: 440 ± 90 µM; k cat [7]: 26 ± 3 s⁻¹; k cat /K M [7]: 60,000 ± 7000 M^−1 s^−1 |
| Nc1ncnc2c1ncn2[C@@H]1O[C@@H]2COP(=O)(O)O[C@H]3[C@@H](O)[C@H](n4cnc5c(N)ncnc54)O[C@@H]3COP(=O)(O)O[C@H]2[C@H]1O [c-di-AMP, 3′,5′-cyclic diadenosine monophosphate] |  |  |  | 3400 ± 2200 | 0.012 ± 0.007 | 3.5 ± 0.1 M⁻¹ s⁻¹ | 15 | 0.40 | 29,000 M^−1 s^−1 |  |
| Nc1nc2c(ncn2[C@@H]2O[C@@H]3COP(=O)(O)O[C@H]4[C@@H](O)[C@H](n5cnc6c(=O)[nH]c(N)nc65)O[C@@H]4COP(=O)(O)O[C@H]3[C@H]2O)c(=O)[nH]1 [c-di-GMP, 3′,5′-cyclic diguanosine monophosphate] |  |  |  | 250 ± 30 | 0.0003 ± 0.0001 | 1.2 ± 0.4 M⁻¹ s⁻¹ | 6 | 0.07 | 13,000 M^−1 s^−1 |  |
| Nc1ncnc2c1ncn2[C@@H]1O[C@H](COP(=O)(O)O[C@H]2[C@@H](O)[C@H](n3cnc4c(N)ncnc43)O[C@@H]2COP(=O)(O)O)[C@@H](O)[C@H]1O [pApA, 5′-phosphoadenylyl-3′→5′-adenosine] |  |  |  | 230 ± 40 | 0.0004 ± 0.0001 | 1.8 ± 0.2 M⁻¹ s⁻¹ | 0.6 | 1.30 | 2,300,000 M^−1 s^−1 | Stronger loss of catalytic efficiency than on c-di-AMP caused by the deletion of the C domain ([3]; CpdB_Ndom versus mature CpdB): 100 fold |
